Read-outs that look alike come from different tables or passages of the source.
Key:
HIV-1SF33 = test: Time-of-addition assay; assay type: cell-based; conditions: for Antiviral activity in time-of-addition assay: added eight hours post-infection, BmPCP 13.3 μM, NVP 5 μM
Experimental: Figure 2 Time-of-addition assay of compounds. TZM-bl cells were infected with HIV-1SF33 at 200 TCID50.
MT4 cells were seeded at 10^4/well and cultured in a 96-well tissue culture plate overnight, followed by addition of 200 TCID50 of HIV-1SF33. […] HIV-1 p24 was measured using a commercial enzyme-linked immunosorbent assay (ELISA) kit (Vironostika HIV-1 Microelisa system; BioMérieux; Marcy l'Etoile, France).

HIV-1 SF33 [1] = test: HIV-1 inhibition assay, TZM-bl cells, luciferase; assay type: cell-based; conditions: for IC50: Human immunodeficiency virus 1
Experimental: (§1) The inhibitory activity of BmPCP, APCP, BPCP and EPCP on infection by laboratory-adapted HIV-1 strains was tested in TZM-bl cells, MT4 cells or PBMCs, respectively, as previously described. TZM-bl cells were seeded at 10^4/well and cultured in a 96-well tissue culture plate overnight, followed by addition of 200 TCID50 (50% Tissue Culture Infective Dose) of HIV-1 virus. After incubation at 37°C for 2 hrs, BmPCP at graded concentrations was added. After further incubation at 37°C for 48 hrs, the luciferase activity was measured using a luciferase assay kit (Promega Corp.) according to the manufacturer's instructions. MT4 cells (4 × 10^4/well) and PBMCs (1 × 10^5/well) were infected by addition of 200 TCID50 of HIV-1 virus, followed by incubation for 2 hrs at 37°C before addition of BmPCP at serial dilutions. After further incubation at 37°C for 4 days (for MT4 cells) or 7 days (for PBMCs), HIV-1 p24 was measured using a commercial enzyme-linked immunosorbent assay (ELISA) kit (Vironostika HIV-1 Microelisa system; BioMérieux; Marcy l'Etoile, France). The inhibitory activity of BmPCP on infection by primary HIV-1 isolates was also tested in PBMCs as described above. The percent of inhibition and the IC50 were calculated as previously described.

HIV-1 SF33 [2] = test: HIV-1 inhibition assay, MT4 cells, p24 ELISA; assay type: cell-based; conditions: for IC50: Human immunodeficiency virus 1
Experimental: as §1

XTT cytotoxicity assay = assay type: cell-based; conditions: human
Experimental: (§2) XTT assay was used to test the cytotoxicity of BmPCP on MT4 cells, human PBMCs (non-stimulated) and TZM-bl cells.
(§3) An XTT assay, as previously described, was used for assessing the cytotoxicity of BmPCP to the cells tested for anti-HIV-1 activity. Briefly, BmPCP at graded concentrations was added to MT4 cells, PBMCs, and TZM-bl cells at 4 × 10^4, 1 × 10^5 and 1 × 10^4 cells per well, respectively, followed by an incubation at 37°C for 3 days. Ten microliters of CCK-8 reagent was added to the cells. After incubation at 37°C, for 4 h to allow color development of the XTT formazan product, the absorbance of each well was then read at 450 nm in a Victor2 1420 Multilabel Counter (Wallace-PerkinElmer Life and Analytical Sciences Inc., Boston, MA). The percent of cytotoxicity and CC50 were calculated as previously described.

HIV-1 1617-1 = test: microbe, parasite or virus in culture; assay type: cell-based
Experimental: We tested the antiviral activity of BmPCP in three cells including peripheral blood mononuclear cells (PBMCs), TZM-b1 and MT4 cells by using HIV-1SF33 and HIV-1 1617-1, a variant bearing K70G, 184V, 75I, 77L, I16Y and I51M mutations, which are resistant to NRTIs (e.g., d4T, DDI and AZT).
as §1

HIV-1 XJ0793 = test: Primary HIV-1 isolate inhibition in PBMCs; assay type: cell-based; conditions: primary isolate XJ0793, subtype B'/C, R5, PBMCs; for IC50: Human immunodeficiency virus 1, PBMC
Experimental: (§4) HIV-1CRF07_BC and B' (Thailand B, a kind variant of subtype B) are two epidemic strains in China. Furthermore, to verify the antiviral activity on China clinical isolates, CRF07_BC and B' were chosen.
as §1

HIV-1 XJ6291 = test: Primary HIV-1 isolate inhibition in PBMCs; assay type: cell-based; conditions: for IC50: Human immunodeficiency virus 1, PBMC
Experimental: as §4, §1

HIV-1 AH259 = test: Primary HIV-1 isolate inhibition in PBMCs; assay type: cell-based; conditions: primary isolate AH259, subtype B', R5, PBMCs; for IC50: Human immunodeficiency virus 1, PBMC
Experimental: as §4, §1

HIV-1 AH104 = test: Primary HIV-1 isolate inhibition in PBMCs; assay type: cell-based; conditions: Human immunodeficiency virus 1, PBMC; primary isolate AH104, subtype B', X4/R5, PBMCs
Experimental: as §4, §1

HIV-1 XJ257 = test: Primary HIV-1 isolate inhibition in PBMCs; assay type: cell-based; conditions: primary isolate XJ257, subtype B'/C, R5, PBMCs; for IC50: Human immunodeficiency virus 1, PBMC
Experimental: as §4, §1

HIV-1 AH968 = test: Primary HIV-1 isolate inhibition in PBMCs; assay type: cell-based; conditions: primary isolate AH968, subtype B', R5, PBMCs; for IC50: Human immunodeficiency virus 1, PBMC
Experimental: as §4, §1

HIV-1 SF33 [3] = test: HIV-1 inhibition assay, PBMCs, p24 ELISA; assay type: cell-based; conditions: for IC50: Human immunodeficiency virus 1, PBMC
Experimental: as §1

[4] = XTT cytotoxicity assay, summary over cells; assay type: cell-based; conditions: human, human PBMCs (non-stimulated) and TZM-bl cells, MT4, PBMCs and TZM-bl cells, read-out: CC50, range
Experimental: as §2, §3

MT4 cells = test: XTT cytotoxicity assay; assay type: cell-based
Experimental: as §2, §3

TZM-bl cells = test: XTT cytotoxicity assay; assay type: cell-based
Experimental: as §2, §3

[5] = target: HIV-1 reverse transcriptase (Human immunodeficiency virus type 1 group M subtype B, UniProt P04585); test: ELISA RT assay for inhibition of HIV-1 reverse transcriptase activity
Excerpt: Oligo(dT) 15 was immobilized via its 5'-terminal phosphate to Covalink-NH microtiter plates. The biotin-dUTP was incorporated by reverse transcriptase. The products were detected and quantified using a colorimetric strep- tavidin-alkaline phosphatase reporter system.
Briefly, Oligo(dT) 15 was immobilized via its 5'-terminal phosphate to CovaLink NH microtiter plates. The biotin-dUTP was incorporated by reverse transcriptase. The products were detected and quantified using a colorimetric streptavidin alkaline phosphatase reporter system.

HIV-1 = HIV-1 inhibition assays, summary over strains and cells; assay type: cell-based; conditions: broad spectrum of HIV-1 strains incl. Chinese clinical isolates
Experimental: as §1

[6] = Human immunodeficiency virus 1, MT4
[7] = Human immunodeficiency virus 1, PBMC
[8] = Human immunodeficiency virus 1, TZM-bl

Compound | IC50 (HIV-1 SF33 [1]) [nM] | IC50 (HIV-1 SF33 [2]) [nM] | SI (Selectivity index = CC50/IC50) (HIV-1 SF33 [1]) | SI (Selectivity index = CC50/IC50) (HIV-1 SF33 [2]) | CC50 at 3 days (XTT cytotoxicity assay; MT4 cells) [nM] | CC50 at 3 days (XTT cytotoxicity assay; TZM-bl cells) [nM] | IC50 (HIV-1 1617-1; [6]) [nM] | IC50 (HIV-1 1617-1; [7]) [nM] | IC50 (HIV-1 1617-1; [8]) [nM] | IC50 (HIV-1 XJ0793) [nM] | IC50 (HIV-1 AH259) [nM] | IC50 (HIV-1 AH104) [nM] | IC50 (HIV-1 XJ257) [nM] | IC50 (HIV-1 AH968) [nM] | IC50 (HIV-1 SF33 [3]) [nM] | Antiviral activity in time-of-addition assay (HIV-1SF33) | further results
Enfuvirtide [T20] |  |  |  |  |  |  |  |  |  |  |  |  |  |  |  |  | Inhibitory activity in time-of-addition assay (HIV-1SF33; added one hour after viral infection, T-20 5 μM): no inhibitory activity
O=c1[nH]c(=O)n(COCc2ccccc2)c2c1CCCCC2c1ccccc1 (stereo not drawn) [BmPCP] | 340 | 1960 | 266 | 84 | 90300 | 129000 | 1470 ± 430 | 1760 ± 230 | 1450 ± 210 | 250 ± 30 | 320 ± 150 | 590 ± 340 | 530 ± 70 | 440 ± 170 | 1720 ± 370 | demonstrated antiviral activity | SI (Selectivity index = CC50/IC50) (HIV-1 1617-1; 1617-1/PBMCs): 65; SI (Selectivity index = CC50/IC50) (HIV-1 1617-1; 1617-1/TZM-bl): 62; SI (Selectivity index = CC50/IC50) (HIV-1 XJ0793): 361; IC50 (HIV-1 XJ6291): 570 ± 20 nM; SI (Selectivity index = CC50/IC50) (HIV-1 XJ6291; primary isolate XJ6291, subtype B'/C, R5, PBMCs): 158; SI (Selectivity index = CC50/IC50) (HIV-1 AH259): 282; SI (Selectivity index = CC50/IC50) (HIV-1 XJ257): 170; SI (Selectivity index = CC50/IC50) (HIV-1 AH968): 205; SI (Selectivity index = CC50/IC50) (HIV-1 SF33 [3]): 67; CC50 at 3 days [4]: 90000 to 165000 nM; CC90 at 3 days (XTT cytotoxicity assay; MT4 cells): 383000 ± 53500 nM; CC50 at 3 days (XTT cytotoxicity assay; PBMCs (non-stimulated), PBMC): 114000 ± 9380 nM; CC90 at 3 days (XTT cytotoxicity assay; PBMCs (non-stimulated), PBMC): 229000 ± 6400 nM; CC90 at 3 days (XTT cytotoxicity assay; TZM-bl cells): 208000 ± 8690 nM; CC50 (MT4 cells): 165000 nM; CC50 (TZM-bl cells): 90300 nM; IC50 [5]: 1510 nM; IC50, level over HIV-1 strains (HIV-1): low μM levels
Cc1ccnc2c1NC(=O)c1cccnc1N2C1CC1 [NVP, nevirapine, reference compound] | 190 ± 20 | 650 ± 230 |  |  |  |  | 440 ± 120 | 570 ± 80 | 160 ± 100 | 79 ± 97 | 7 ± 1 | 7 ± 3 | 211 ± 120 | 58 ± 60 | 690 ± 70 | demonstrated antiviral activity | IC50 (HIV-1 XJ6291; primary isolate XJ6291, subtype B'/C, R5, PBMCs, read-out: IC50): 186 ± 224 nM
O=c1[nH]c(=O)n(Cc2ccccc2)c2c1CCCCC2c1ccccc1 (stereo not drawn) [BPCP] | 9000 | 115000 | 20 | 1.15 | 132000 | 180000 |  |  |  |  |  |  |  |  |  |  | 

More lines, main results first:

IC50 (HIV-1 SF33 [1]) [nM] | IC50 (HIV-1 SF33 [2]) [nM] | Compound | SI (Selectivity index = CC50/IC50) (HIV-1 SF33 [1]) | SI (Selectivity index = CC50/IC50) (HIV-1 SF33 [2]) | CC50 at 3 days (XTT cytotoxicity assay; MT4 cells) [nM] | CC50 at 3 days (XTT cytotoxicity assay; TZM-bl cells) [nM] | IC50 (HIV-1 1617-1; [6]) [nM] | IC50 (HIV-1 1617-1; [7]) [nM] | IC50 (HIV-1 1617-1; [8]) [nM] | IC50 (HIV-1 XJ0793) [nM] | IC50 (HIV-1 AH259) [nM] | IC50 (HIV-1 AH104) [nM] | IC50 (HIV-1 XJ257) [nM] | IC50 (HIV-1 AH968) [nM] | IC50 (HIV-1 SF33 [3]) [nM] | Antiviral activity in time-of-addition assay (HIV-1SF33) | further results
1300 | 28600 | C=CCn1c2c(c(=O)[nH]c1=O)CCCCC2c1ccccc1 (stereo not drawn) [APCP] | 38.46 | 2.17 | 62000 | 50000 |  |  |  |  |  |  |  |  |  |  | 
1600 | 7500 | CCOCn1c2c(c(=O)[nH]c1=O)CCCCC2c1ccccc1 (stereo not drawn) [EPCP] | 13.75 | 3.9 | 29300 | 22000 |  |  |  |  |  |  |  |  |  |  | 
